Assay results published in patent US6342508B1, “N-hydroxy-2-(Alkyl,Aryl or Heteroaryl sulfanyl, sulfinyl or sulfonyl) 3-substituted alkyl, aryl or heteroarylamides as matrix metalloproteinase inhibitors” (American Cyanamid Company, priority 1997, dated 2002).
Read-outs that look alike come from different tables or passages of the source. Each block holds one compound with its values, some of them ahead of it.

What was measured:
MMP 9 = biological target: T1, MMP 9 (Homo sapiens, UniProt P14780); experiment: In Vitro Gelatinase Assay (human neutrophil gelatinase B, thiopeptide substrate/DTNB); type: biochemical
T1 construct: from tissue; host or cells: human neutrophils
Experimental: The assay is based on the cleavage of the thiopeptide substrate ((Ac-Pro-Leu-Gly(2 Mercapto-4 methyl-pentanoyl)-Leu-Gly-OEt), Bachem Bioscience) by the enzyme, gelatinase, releasing the substrate product which reacts colorimetrically with DTNB ((5,5′-dithio-bis(2-nitro-benzoic acid)). The enzyne activity is measured by the rate of the color increase. The thiopeptide substrate is made up fresh as a 20 mM stock in 100% DMSO and the DTNB is dissolved in 100% DMSO as a 100 mM stock and stored in dark at room temperature. Both the substrate and DTNB are diluted together to 1 mM with substrate buffer (50 mM HEPES pH 7.5, 5 mM CaCl2) before use.
The increase in OD405 is plotted and the slope of the line is calculated which represents the reaction rate.
The mean (x±sem) of the control rate is calculated and compared for statistical significance (p<0.05) with drug-treated rates using Dunnett's multiple comparison test.

TACE = biological target: T2, TACE (Homo sapiens, UniProt P78536); experiment: Procedure for Measuring TACE Inhibition (fluorescent peptidyl substrate); type: biochemical; conditions: for IC50: read-out: TACE IC 50; for inhibition at 1 µM: read-out: TACE % inhibition at 1 micromolar
T2 construct: purchased Immunex
Experimental: Using 96-well black microtiter plates, each well recieves a solution composed of 10 μL TACE (Immunex, final concentration 1 μg/mL), 70 μL Tris buffer, pH 7.4 containing 10% glycerol (final concentration 10 mM), and 10 μL of test compound solution in DMSO (final concentration, DMSO concentration <1%) and incubated for 10 minutes at room temperature. The reaction is initiated by addition of a fluorescent peptidyl substrate (final concentration 100 μM) to each well and then shaking on a shaker for 5 sec. The reaction is read (excitation 340 nm, emission 420 nm) for 10 min. and the increase in fluorescence over time is plotted as a linear line. The slope of the line is calculated and represents the reaction rate. […] The mean (x±sem) of the control rate is calculated and compared for statistical significance (p<0.05) with drug-treated rates using Dunnett's multiple comparison test.

MMP 1 = biological target: T3, MMP 1 (Homo sapiens, UniProt P03956); experiment: In Vitro Collagenase Assay (human recombinant fibroblast collagenase, fluorogenic peptide substrate); type: biochemical; conditions: for IC50: read-out: MMP 1 IC 50
T3 construct: human recombinant fibroblast collagenase (truncated mw=18,828, WAR, Radnor)
T3 sequence (P03956 100-269 limits assumed): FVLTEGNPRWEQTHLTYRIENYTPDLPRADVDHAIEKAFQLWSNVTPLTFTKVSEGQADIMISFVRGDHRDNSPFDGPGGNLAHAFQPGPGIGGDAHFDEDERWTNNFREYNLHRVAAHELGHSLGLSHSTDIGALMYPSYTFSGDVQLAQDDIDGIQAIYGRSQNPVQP
Experimental: The assay is based on the cleavage of a peptide substrate ((Dnp-Pro-Cha-Gly-Cys(Me)-His-Ala-Lys(NMa)-NH2), Peptide International Inc.) by collagenase releasing the fluorescent NMa group which is quantitated on the fluorometer. Dnp quenches the NMa fluorescence in the intact substrate. […] Substrate is dissolved in methanol and stored frozen in 1 mM aliquots. […] For the assay, substrate is dissolved in HCBC buffer to a final concentration of 10 μM and collagenase to a final concentration of 5 nM. Compounds are dissolved in methanol, DMSO, or HCBC. The methanol and DMSO are diluted in HCBC to <1.0%. Compounds are added to the 96 well plate containing enzyme and the reaction is started by the addition of substrate.
The slope of the line is calculated and represents the reaction rate.
The mean (x±sem) of the control rate is calculated and compared for statistical significance (p<0.05) with drug-related rates using Dunnett's multiple comparison test.

MMP 13 [1] = biological target: T4, MMP 13 (Homo sapiens, UniProt P45452); experiment: MMP 13 inhibition (standard/manual test); type: biochemical
MMP 13 [2] = biological target: T4, MMP 13; experiment: MMP 13 inhibition (HTS); type: biochemical

T1 sequence (P14780 94-707): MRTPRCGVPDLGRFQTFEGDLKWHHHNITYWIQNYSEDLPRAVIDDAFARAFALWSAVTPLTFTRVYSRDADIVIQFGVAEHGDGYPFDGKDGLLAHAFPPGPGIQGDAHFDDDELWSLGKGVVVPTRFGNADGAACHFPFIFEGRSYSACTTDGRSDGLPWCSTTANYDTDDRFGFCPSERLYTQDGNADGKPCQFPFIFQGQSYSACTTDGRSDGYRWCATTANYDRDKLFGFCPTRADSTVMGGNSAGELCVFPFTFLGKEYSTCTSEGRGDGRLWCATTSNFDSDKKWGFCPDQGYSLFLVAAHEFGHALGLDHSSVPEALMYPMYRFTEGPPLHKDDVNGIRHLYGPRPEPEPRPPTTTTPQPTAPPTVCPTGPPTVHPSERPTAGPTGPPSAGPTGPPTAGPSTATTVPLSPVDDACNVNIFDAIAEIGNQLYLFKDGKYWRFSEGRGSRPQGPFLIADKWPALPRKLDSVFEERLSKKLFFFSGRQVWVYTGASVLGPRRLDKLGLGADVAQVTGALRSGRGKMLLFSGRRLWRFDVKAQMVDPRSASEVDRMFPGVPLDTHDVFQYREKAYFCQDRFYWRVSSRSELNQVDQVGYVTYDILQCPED
T2 sequence (P78536 215-824): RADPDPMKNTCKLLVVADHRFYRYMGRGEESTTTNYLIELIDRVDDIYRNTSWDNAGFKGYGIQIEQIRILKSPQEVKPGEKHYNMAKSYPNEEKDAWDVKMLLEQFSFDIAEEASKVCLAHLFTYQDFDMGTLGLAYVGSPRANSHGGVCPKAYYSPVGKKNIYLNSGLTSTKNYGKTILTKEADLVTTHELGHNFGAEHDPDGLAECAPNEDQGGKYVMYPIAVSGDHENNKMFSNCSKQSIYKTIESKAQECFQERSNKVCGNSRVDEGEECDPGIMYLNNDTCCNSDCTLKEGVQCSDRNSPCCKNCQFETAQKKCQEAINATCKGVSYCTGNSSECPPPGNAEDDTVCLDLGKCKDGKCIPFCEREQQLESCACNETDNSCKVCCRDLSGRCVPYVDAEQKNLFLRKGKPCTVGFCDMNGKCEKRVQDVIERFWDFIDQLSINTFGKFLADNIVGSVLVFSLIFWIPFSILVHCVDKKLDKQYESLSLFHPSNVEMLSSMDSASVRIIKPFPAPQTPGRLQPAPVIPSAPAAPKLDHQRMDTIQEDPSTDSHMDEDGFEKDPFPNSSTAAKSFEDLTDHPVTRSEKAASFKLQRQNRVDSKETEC

Compound: 2-(4-Methoxy-benzenesulfonyl)-4methyl-2-pyridin-ylmethyl-pentanoic acid hydroxyamide [Example 66]
- IC50 (MMP 9; read-out: MMP 9 IC 50): 131 nM
- TACE % inhibition at 1 micromolar (TACE): 42.33%
- IC50 (MMP 1): 1600 nM
- IC50 (MMP 13 [1]; read-out: MMP 13 IC 50): 226 nM

Compound: CCCCC[C@H](C(=O)NO)[S@+]([O-])c1ccc(OC)cc1 (relative stereo) [Example 81a, 2R*-(4-methoxyphenyl-S*-sulfinyl)-heptanoic acid hydroxyamide]
- IC50 (MMP 9; read-out: MMP 9 IC 50): 231 nM
- IC50 (TACE): 27.1 nM
- IC50 (MMP 1): 2040 nM
- IC50 (MMP 13 [1]; read-out: MMP 13 IC 50): 43.9 nM

Compound: COc1ccc(S(=O)(=O)C(C)(CC=C(C)C)C(=O)NO)cc1 (stereo not shown) [Example 13, 2-(4-Methoxy-benzenesulfonyl)-2-dimethyl-hex-4-enoic acid hydroxyamide]
- IC50 (MMP 9; read-out: MMP 9 IC 50): 11 nM
- IC50 (TACE): 626 nM
- IC50 (MMP 1): 239 nM
- IC50 (MMP 13 [1]; read-out: MMP 13 IC 50): 14 nM

Compound: CCOc1ccc(S(=O)(=O)C(C)(Cc2ccc(OCCN(CC)CC)cc2)C(=O)NO)cc1 (stereo not shown) [Example 25, N-Hydroxy-2-(4-ethoxy-benzenesulfonyl)-2-methyl-3-[4-(2-N,N-diethylamino-ethoxy)-phenyl]-propionamide]
- IC50 (MMP 9; read-out: MMP 9 IC 50): 26.7 nM
- IC50 (MMP 13 [1]; read-out: MMP 13 IC 50): 8 nM

Compound: CCCC(Cc1ccc(OCCN2CCOCC2)cc1)(C(=O)NO)S(=O)(=O)c1ccc(OC)cc1 (stereo not shown) [Example 35, 2-(4-Methoxy-benzenesulfonyl)-2-[4-(2-morpholin4yl-oxy)-benzyl]-pentanoic acid hydroxyamide]
- IC50 (MMP 9; read-out: MMP 9 IC 50): 234 nM
- IC50 (MMP 1): 456 nM
- IC50 (MMP 13 [1]; read-out: MMP 13 IC 50): 48.2 nM

Compound: CCCCCCC(Sc1ccc(OC)cc1)C(=O)NO (stereo not shown) [Example 37, 2-(4-Methoxy-benzenesulfanyl)-octanoic acid hydroxyamide]
- MMP 9 % inhibition at 1 micromolar (MMP 9): 31.6%
- IC50 (TACE): 87 nM
- MMP 1 % inhibition at 1 micromolar (MMP 1): 9%
- MMP 13 % inhibition at 1 micromolar (MMP 13 [1]): 14.3%

Compound: CC(C(=O)O)S(=O)(=O)CCCCCCCCS(=O)(=O)C(C)C(=O)NO (stereo not shown) [Example 49, 2-[8-(1-carboxy-ethanesfonyl)-octane-1-sulfonyl]-propionic acid hydroxyamide]
- MMP 9 % inhibition at 1 micromolar (MMP 9): 23.7%
- MMP 1 % inhibition at 1 micromolar (MMP 1): 10.1%
- MMP 13 % inhibition at 1 micromolar (MMP 13 [1]): 54.6%

Compound: CC(Cc1ccc(OCCN2CCCCC2)cc1)(C(=O)NO)S(=O)(=O)c1ccc(Br)cc1 (stereo not shown) [Example 50, 2-(4Bromo-benzenesulfonyl)-2-methyl-3-[4-(2-piperdine-1-yl-ethoxy)-phenyl]-propionic acid hydroxanide]
- IC50 (MMP 9; read-out: MMP 9 IC 50): 58.4 nM
- IC50 (MMP 1): 51.1 nM
- IC50 (MMP 13 [1]; read-out: MMP 13 IC 50): 10.6 nM

Compound: COc1ccc(S(=O)(=O)C2(C(=O)NO)CCN(Cc3ccc4ccccc4c3)CC2)cc1 [Example 87, 4-(4methoxy-benzene-sulfonyl)-1-napthalene-2-yl-methylpiperidine-4-carboxylic acid hydroxamide]
- melting point: 168 to 170 °C
- IC50 (MMP 9; read-out: MMP 9 IC 50): 5 nM
- IC50 (MMP 1): 368 nM

Compound: COc1ccc(S(=O)(=O)C2(C(=O)NO)CCN(Cc3ccc(-c4ccccc4)cc3)CC2)cc1 [Example 88, 1-Biphenyl-4-ylmethyl-4-(4-methoxy-benzenesulfonyl)-piperidine-4-carboxylic acid hydroxamide]
- IC50 (MMP 9; read-out: MMP 9 IC 50): 12.8 nM
- IC50 (MMP 1): 1330 nM

Compound: CC(=O)Nc1ccc(SC(Cc2ccccc2)C(=O)NO)cc1 (stereo not shown) [Example 128, 2-(4-Acetylamino-benzenesulfanyl)-N-hydroxy-3-phenyl-propionamide]
- inhibition at 0.2 µM (MMP 13 [2]; read-out: MMP 13 % inhibition at 0.2 μM (HTS), 0.2 μM): 91%
- IC50 (MMP 9; solid phase compounds table, read-out: MMP 9): 213 nM
- IC50 (MMP 13 [1]; manual, nM): 255 nM

Compound: CCCCCCC(C(=O)NO)[S+]([O-])c1ccc(NS(=O)(=O)c2c(C)nn(C)c2Cl)cc1 (stereo not shown) [Example 235, 5-Chloro-1,3-dimethyl-1H-pyrazole-4-sulfonic acid 4-(1-hydroxycarbamoyl-heptylsulfinyl)-hydroxyamide]
- MMP 13 % inhibition at 36 nM (HTS) (MMP 13 [2]): 59%
- TACE % inhibition at 1 mM (TACE): 48.3%

Compound: CCCCCCC(C(=O)NO)[S+]([O-])c1ccc(NS(=O)(=O)c2ccc(-c3ccccn3)s2)cc1 (stereo not shown) [Example 237, 5-Pyridin-2-yl-thiophene-2-sulfonic acid 4(1-hydroxycarbamoyl-heptylsulfinyl)-hydroxy amide]
- MMP 13 % inhibition at 36 nM (HTS) (MMP 13 [2]): 55%
- TACE % inhibition at 1 mM (TACE): 38.2%

Compound: CCCCCCC(C(=O)NO)S(=O)(=O)c1ccc(NS(=O)(=O)c2cccc3nsnc23)cc1 (stereo not shown) [Example 240, Benzo[1,2,5]thiadiazole-4-sulfonic acid 4-(1-hydrxycarbamoyl-heptylsulfonyl)-hydroxyamide]
- MMP 13 % inhibition at 36 nM (HTS) (MMP 13 [2]): 48%
- TACE % inhibition at 1 mM (TACE): 40.3%

Compound: N-Hydroxy-3-methyl-2-phenethylsulfinyl-butyramide [Example 117]
- MMP 13 % inhibition at 0.2 μM (HTS) (MMP 13 [2]; 0.2 μM): 7%
- TACE % inhibition at 1 mM (TACE): 8.1%

Other lines, results leading:

- melting point: 135 °C
- IC50 (MMP 9; read-out: MMP 9 IC 50): 346 nM
- IC50 (MMP 13 [1]; read-out: MMP 13 IC 50): 308 nM
Compound: COc1ccc([S+]([O-])C(C(=O)NO)c2ccccc2)cc1 (stereo not shown) [Example 8, N-Hydroxy-2-(4-methoxy-benzenesulfinyl)-2-phenyl-acetamide]

- IC50 (MMP 9; read-out: MMP 9 IC 50): 8.9 nM
- TACE % inhibition at 1 micromolar (TACE): 41.00%
- IC50 (MMP 1): 239 nM
Compound: COc1ccc(S(=O)(=O)C(C)(Cc2ccc(OCCN3CCCCC3)cc2)C(=O)NO)cc1 (stereo not shown) [Example 17, N-Hydroxy-2-(4-methoxy-benzenesulfonyl)-2-methyl-3-[4-(2-piperidin-1-yl-ethoxy)-phenyl]-proponamide]

- IC50 (MMP 9; read-out: MMP 9 IC 50): 13.2 nM
- inhibition at 1 µM (TACE): 39%
- IC50 (MMP 1): 318 nM
- IC50 (MMP 13 [1]; read-out: MMP 13 IC 50): 15.3 nM
Compound: CCN(CC)CCOc1ccc(CC(C)(C(=O)NO)S(=O)(=O)c2ccc(OC)cc2)cc1 (stereo not shown) [Example 21, N-Hydroxy-2-(4-methoxy-benzenesulfonyl)-2-methyl-3-[4-(2-N,N-diethylamino-ethoxy)-phenyl]-propionamide]

- IC50 (MMP 9; read-out: MMP 9 IC 50): 4.3 nM
- TACE % inhibition at 1 micromolar (TACE): 41%
- IC50 (MMP 1): 297 nM
- IC50 (MMP 13 [1]; read-out: MMP 13 IC 50): 3.6 nM
Compound: CCN(CC)CCOc1cccc(CC(C)(C(=O)NO)S(=O)(=O)c2ccc(OC)cc2)c1 (stereo not shown) [Example 29, N-Hydroxy-2-(4-methoxy-benzenesulfonyl)-2-methyl-3-[3-(2-N,N-diethylamino-ethoxy)-phenyl]-propionamide]

- melting point: 58 to 59 °C
- inhibition at 1 µM (TACE): 15.5%
- IC50 (MMP 1): 100 nM
Compound: COc1ccc(CS(=O)(=O)C(C)(Cc2ccccc2)C(=O)NO)cc1 (stereo not shown) [Example 41, N-Hydroxy-2-(4-methoxy-phenylmethanesulfonyl)-2-methyl-3-phenyl propionic acid hydroxamide]

- MMP 9 % inhibition at 1 micromolar (MMP 9): 34.7%
- TACE % inhibition at 1 micromolar (TACE): 46.6%
- MMP 1 % inhibition at 1 micromolar (MMP 1): 66.1%
- MMP 13 % inhibition at 1 micromolar (MMP 13 [1]): 55.5%
Compound: Cc1occc1S(=O)(=O)C(C)(Cc1ccccc1)C(=O)NO (stereo not shown) [Example 43, 2-Methyl-2-(2-methyl-furan-3-sulfonyl)-3-phenyl-propionic acid hydroxamide]

- MMP 9 % inhibition at 1 micromolar (MMP 9): 48.6%
- TACE % inhibition at 1 micromolar (TACE): 20.4%
- MMP 1 % inhibition at 1 micromolar (MMP 1): 49%
Compound: CC(Cc1ccc(OCCN2CCCCC2)cc1)(C(=O)NO)S(=O)(=O)c1cccs1 (stereo not shown) [Example 45, 2-Methyl-3-4-(2-piperdin-1-yl-ethoxy)-phenyl-2-(thiophene-2-sulfonyl)-propionic acid hydroxamide]

- MMP 9 % inhibition at 1 micromolar (MMP 9): 79.1%
- TACE % inhibition at 1 micromolar (TACE): 51.1%
- MMP 1 % inhibition at 1 micromolar (MMP 1): 99.1%
Compound: CC(Cc1ccccc1)(C(=O)NO)S(=O)(=O)c1cccs1 (stereo not shown) [Example 48, 2-Methyl-3-phenyl-2-(thiophene-2-sulfonyl)-propionic acid hydroxamide]
